Like-named read-outs stand apart in the source and are kept apart here. Marks after values point to notes of the source that are not given here.
How the values were obtained:
Assay in all cases: Drug cytotoxicity testing (viable cell count, trypan blue exclusion, cell growth inhibition)
Format in all cases: cell-based
[1] = test system: Human Ovary Adenocarcinoma Cell Line SKOV-3; conditions: alone or in formulation at molar ratio 1:6
Protocol: (§1) MDA-MB-231 cells were propagated in MEM culture medium with 2 mM L-glutamine, 10% heat-inactivated fetal bovine serum (FBS) and antibiotics. DU 145 cells were cultured in MEM culture medium containing 2 mM L-glutamine, 1 mM sodium pyruvate, 10% FBS and antibiotics. SKOV-3 cells were cultured in McCoy's 5A culture medium, supplemented with 1,5 mM L-glutamine, 10% FBS and antibiotics. A549 cells were cultured in Ham's F-12 culture medium with 1 mM L-glutamine, 10% FBS and antibiotics. All media and supplements were purchased from Sigma-Aldrich (St.Louis, MO, USA). Cell propagation of all lines was carried out in Falcon™ 25 cm^2 cultivation flasks (Becton Dickinson Labware).
(§2) Drug cytotoxicity testing was carried out with using Falcon™ 96-well cultivation plates for adherent cells (Becton Dickinson Labware). These plates were seeded by cells either at 12 × 10^3 MDA-MB-231 cells/well, or at 12 × 10^3 DU 145 cells/well, or at 14 × 10^3 SKOV-3 cells/well, or at 10 × 10^3 A549 cells/well in a volume of 200 µL/well.
(§3) The cell cultures in cultivation plates were allowed to adhere for 24 hour of incubation. On day 1 after cell seeding, 2 µL solutions of the drugs to be tested in medium with 5% FBS was added to the cultures. In the control cultures, 2 µL of medium with 5% FBS was added as solvent control. The cells were incubated for 2 consecutive days. At the end of the incubation period adherent cells were detached by trypsinization and the number of viable cells was counted using trypan blue exclusion test and a hemocytometer. All data were derived from an average of three determinations each in six replicates. The results were expressed as mean cell number ± SE and the differences between control and test series evaluated by means of Student's t-test. The drug cytotoxicity was evaluated based on the extent of cell growth inhibition. The cell growth inhibition of the tested drugs was calculated as follows: Cell growth inhibition,% = (Control-TestSeries)/(Control) × 100 [formula]

[2] = test system: Human Prostate Carcinoma Cell Line DU 145; conditions: alone or in formulation at molar ratio 1:6
Protocol: as §1, §2, §3

[3] = test system: Human Lung Carcinoma Cell Line A549
[4] = test system: Human Breast Adenocarcinoma Cell Line MDA-MB-231; conditions: for IC50 / inhibition at 0.1 µM / inhibition at 0.01 µM / inhibition at 0.001 µM: Homo sapiens; for IC50: calculated from three concentrations, read-out: IC50 mol/L (a); for inhibition at 0.1 µM / inhibition at 0.01 µM / inhibition at 0.001 µM: read-out: Cell Growth Inhibition, %
How it was run: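 A549 cells (10 × 10^3/well) and MDA-MB-231 cells (12 × 10^3/well) were left to adhere for 24 h, then exposed to drugs in medium with 5% FBS for 2 days. Viable cells were counted by trypan blue exclusion after trypsinization. Growth inhibition (%) = (control − test)/control × 100, from three determinations in six replicates each.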

[5] = cytotoxic drug 10^-7 mol/L (100 nM), working solutions in medium with 5% FBS, listed as docetaxel, trihydrate
[6] = cytotoxic drug 10^-7 mol/L (100 nM), working solutions in medium with 5% FBS, trihydrate
[7] = cytotoxic drug 10^-7 mol/L (100 nM), working solutions in medium with 5% FBS, trihydrate, 0.1 µM
[8] = cytotoxic drug 10^-8 mol/L, working solutions in medium with 5% FBS
[9] = cytotoxic drug 10^-9 mol/L, working solutions in medium with 5% FBS
[10] = cytotoxic drug 10^-7 mol/L (100 nM), alone or in formulation at molar ratio 1:6, working solutions in medium with 5% FBS, listed as docetaxel, trihydrate
[11] = cytotoxic drug 10^-7 mol/L (100 nM), alone or in formulation at molar ratio 1:6, working solutions in medium with 5% FBS, trihydrate
[12] = cytotoxic drug 10^-7 mol/L (100 nM), alone or in formulation at molar ratio 1:6, working solutions in medium with 5% FBS, trihydrate, 0.1 µM
[13] = cytotoxic drug 10^-8 mol/L, alone or in formulation at molar ratio 1:6, working solutions in medium with 5% FBS
[14] = cytotoxic drug 10^-9 mol/L, alone or in formulation at molar ratio 1:6, working solutions in medium with 5% FBS
[15] = cytotoxic drug alone 10^-7 mol/L, average of positive controls in medium with 5% FBS, normal saline and saline with 2,3 mM CaCl2
[16] = cytotoxic drug alone 10^-8 mol/L, average of positive controls in medium with 5% FBS, normal saline and saline with 2,3 mM CaCl2
[17] = cytotoxic drug alone 10^-9 mol/L, average of positive controls in medium with 5% FBS, normal saline and saline with 2,3 mM CaCl2

Compound: CC(=O)O[C@@]12CO[C@@H]1C[C@H](O)[C@@]1(C)C(=O)[C@H](O)C3=C(C)[C@@H](OC(=O)[C@H](O)[C@@H](NC(=O)OC(C)(C)C)c4ccccc4)C[C@@](O)([C@@H](OC(=O)c4ccccc4)[C@H]21)C3(C)C [Docetaxel, (2R,3S)-N-carboxy-3-phenylisoserine, N-tert-butyl ester, 13-ester with 5β-20-epoxy-1,2α ,4,7β,10β,13α -hexahydroxytax-11-en-9-one 4-acetate 2-benzoate, trihydrate]
- inhibition at 0.1 µM ([1]; Homo sapiens, SK-OV-3, cytotoxic drug 10^-7 mol/L (100 nM), working solutions in medium with 5% FBS): 68.7%
- inhibition at 0.01 µM ([1]; Homo sapiens, SK-OV-3, cytotoxic drug 10^-8 mol/L, working solutions in medium with 5% FBS): 55.5%
- inhibition at 0.001 µM ([1]; Homo sapiens, SK-OV-3, cytotoxic drug 10^-9 mol/L, working solutions in medium with 5% FBS): 34.2%
- IC50 ([1]; Homo sapiens, SK-OV-3, as concentration of cytotoxic drug, medium with 5% FBS, calculated from three concentrations, read-out: IC50 mol/L (a)): 5.2 nM
- Tumor Cell Number, × 10^3 [1, 5]: 16.1 ± 0.94 × 10^3
- Tumor Cell Number, × 10^3 [1, 6]: 16.8 ± 0.80 × 10^3
- Cell Growth Inhibition, % [1, 7]: 67.8* %
- Tumor Cell Number, × 10^3 [1, 8]: 23.2 ± 2.19 × 10^3
- Tumor Cell Number, × 10^3 [1, 9]: 34.3 ± 2.01 × 10^3
- inhibition at 0.1 µM ([2]; Homo sapiens, DU-145, cytotoxic drug 10^-7 mol/L (100 nM), working solutions in medium with 5% FBS): 74.5%
- inhibition at 0.01 µM ([2]; Homo sapiens, DU-145, cytotoxic drug 10^-8 mol/L, working solutions in medium with 5% FBS): 51.8%
- inhibition at 0.001 µM ([2]; Homo sapiens, DU-145, cytotoxic drug 10^-9 mol/L, working solutions in medium with 5% FBS): 34.7%
- IC50 ([2]; Homo sapiens, DU-145, as concentration of cytotoxic drug, medium with 5% FBS, calculated from three concentrations, read-out: IC50 mol/L (a)): 8 nM
- Tumor Cell Number, × 10^3 [2, 5]: 14.2 ± 0.85 × 10^3
- Tumor Cell Number, × 10^3 [2, 6]: 10.8 ± 0.94 × 10^3
- Cell Growth Inhibition, % [2, 7]: 74.0* %
- Tumor Cell Number, × 10^3 [2, 8]: 20.0 ± 1.16 × 10^3
- Tumor Cell Number, × 10^3 [2, 9]: 27.1 ± 1.07 × 10^3
- inhibition at 0.1 µM ([3]; Homo sapiens, A549, cytotoxic drug 10^-7 mol/L (100 nM), alone or in formulation at molar ratio 1:6, working solutions in medium with 5% FBS): 80.3%
- inhibition at 0.01 µM ([3]; Homo sapiens, A549, cytotoxic drug 10^-8 mol/L, alone or in formulation at molar ratio 1:6, working solutions in medium with 5% FBS): 71.4%
- inhibition at 0.001 µM ([3]; Homo sapiens, A549, cytotoxic drug 10^-9 mol/L, alone or in formulation at molar ratio 1:6, working solutions in medium with 5% FBS): 37.5%
- inhibition at 0.1 µM ([3]; Homo sapiens, A549, cytotoxic drug alone 10^-7 mol/L, average of positive controls in medium with 5% FBS, normal saline and saline with 2,3 mM CaCl2): 80.3%
- inhibition at 0.01 µM ([3]; Homo sapiens, A549, cytotoxic drug alone 10^-8 mol/L, average of positive controls in medium with 5% FBS, normal saline and saline with 2,3 mM CaCl2): 71%
- inhibition at 0.001 µM ([3]; Homo sapiens, A549, cytotoxic drug alone 10^-9 mol/L, average of positive controls in medium with 5% FBS, normal saline and saline with 2,3 mM CaCl2): 36%
- IC50 ([3]; Homo sapiens, A549, as concentration of cytotoxic drug, alone or in formulation at molar ratio 1:6, medium with 5% FBS, calculated from three concentrations, read-out: IC50 mol/L (a)): 2.2 nM
- Tumor Cell Number, × 10^3 [3, 10]: 10.6 ± 0.72 × 10^3
- Tumor Cell Number, × 10^3 [3, 11]: 10.5 ± 0.97 × 10^3
- Cell Growth Inhibition, % [3, 12]: 80.8* %
- Tumor Cell Number, × 10^3 [3, 13]: 15.6 ± 0.49 × 10^3
- Tumor Cell Number, × 10^3 [3, 14]: 34.1 ± 2.07 × 10^3
- Tumor Cell Number, × 10^3 [3, 15]: 11.0±0.73 × 10^3
- Tumor Cell Number, × 10^3 [3, 16]: 16.2±0.75 × 10^3
- Tumor Cell Number, × 10^3 [3, 17]: 35.7±1.51 × 10^3
- IC50 ([4]; MDA-MB-231, as concentration of cytotoxic drug, alone or in formulation at molar ratio 1:6, medium with 5% FBS): 3.6 nM
- inhibition at 0.1 µM ([4]; MDA-MB-231, cytotoxic drug 10^-7 mol/L (100 nM), alone or in formulation at molar ratio 1:6, working solutions in medium with 5% FBS): 73.3%
- inhibition at 0.01 µM ([4]; MDA-MB-231, cytotoxic drug 10^-8 mol/L, alone or in formulation at molar ratio 1:6, working solutions in medium with 5% FBS): 58.1%
- inhibition at 0.001 µM ([4]; MDA-MB-231, cytotoxic drug 10^-9 mol/L, alone or in formulation at molar ratio 1:6, working solutions in medium with 5% FBS): 38.7%
- inhibition at 0.1 µM ([4]; MDA-MB-231, cytotoxic drug alone 10^-7 mol/L, average of positive controls in medium with 5% FBS, normal saline and saline with 2,3 mM CaCl2): 76.5%
- inhibition at 0.01 µM ([4]; MDA-MB-231, cytotoxic drug alone 10^-8 mol/L, average of positive controls in medium with 5% FBS, normal saline and saline with 2,3 mM CaCl2): 56.3%
- inhibition at 0.001 µM ([4]; MDA-MB-231, cytotoxic drug alone 10^-9 mol/L, average of positive controls in medium with 5% FBS, normal saline and saline with 2,3 mM CaCl2): 36.4%
- IC50 ([4]; MDA-MB-231, cytotoxic drug alone, average of positive controls): 4.6 nM
- Tumor Cell Number, × 10^3 [4, 10]: 15.4 ± 1.02 × 10^3
- Tumor Cell Number, × 10^3 [4, 11]: 13.7 ± 1.03 × 10^3
- Cell Growth Inhibition, % [4, 12]: 75.4* %
- Tumor Cell Number, × 10^3 [4, 13]: 23.4 ± 2.15 × 10^3
- Tumor Cell Number, × 10^3 [4, 14]: 34.2 ± 2.28 × 10^3
- Tumor Cell Number, × 10^3 [4, 15]: 13.6±0.72 × 10^3
- Tumor Cell Number, × 10^3 [4, 16]: 25.3±1.18 × 10^3
- Tumor Cell Number, × 10^3 [4, 17]: 36.8±1.70 × 10^3

Reference: EP1534672B1, “RETINOL DERIVATIVES, THEIR USE IN THE TREATMENT OF CANCER AND FOR POTENTIATING THE EFFICACY OF OTHER CYTOTOXIC AGENTS” (priority 2002, dated 2004)
